The values below come from PMC4309560, “Creating Novel Activated Factor XI Inhibitors through Fragment Based Lead Generation and Structure Aided Drug Design” (PLoS ONE, 2015).

One data set has as its target T1, Human FXIa (Homo sapiens, UniProt P03951).
T1 construct: purchased HTI, Essex Junction, USA
Kind of data set: FXIa enzymatic chromogenic assay. Type of data set: biochemical. How it is done:
(§1) Enzymatic assay. […] Selected compounds were also screened against other serine proteases to evaluate their selectivity profiles.
(§2) Once the compounds were synthesized and characterized, enzymatic assays were performed to evaluate the inhibitory activity of the resulting compounds against FXIa and other serine proteases. […] IC50 values for the compounds were determined using equation: Q= V/(1+([I]/IC50)^n) Q denotes the assay readout, V denotes the uninhibited velocity of the enzyme, [I] denotes the inhibitor concentration, n denotes the slope and IC50 is the inhibitor concentration at V/2.
(§3) [S] denotes the substrate concentration.

A further data set deals with T2, FXIa CD (Homo sapiens, UniProt P03951, C500S/K455A/S452A/T493A).
T2 construct: purification of the catalytic domain (residues 370–607) was carried out as described by Jin et al; made in house
Kind of data set: FXIa surface plasmon resonance (Biacore) inhibition in solution assay. Type of data set: binding. The text has this: SPR. […] The SPR data were then used to rank and select compounds for X-ray crystallography experiments. The SPR method was based on an inhibition in solution assay in which compound 4, immobilized on the biosensor surface, served as a probe for the FXIa catalytic site. […] Fig. 4 illustrates the design of compound 4 based on the crystal structure of FXIa in complex with compound 1. Since any ligand that binds to the S1 pocket competes with compound 4 for binding to FXIa CD, it is possible to derive the K D for that ligand [60]. The initial binding rate of the protein to compound 4, K on, was used to determine the percentage of free protein in solution which changed by varying the concentration of the competing ligand. The free protein concentration was plotted against the logarithm of the ligand concentration and a sigmoidal dose–response curve-fit model was applied to determine the K D-value.
The tethered free amine ligand 4 was covalently linked to the dextran layer on the CM5 sensor chip (GE Healthcare/Biacore) using the Amine Coupling Kit (Healthcare/Biacore) and performed according to the manufacturer’s recommendations. Carboxyl groups on the dextran layer were activated by injecting a 1:1 mixture of 0.5 M N-ethyl-N’ (3-dimethylaminopropyl)-carbodiimide and 0.5 M N-hydroxysuccinimide at 10 μL/min for 7 min. The activated carboxyl groups on the control channels were blocked by injecting a 1 M ethanolamine solution for 7 min at 10 μL/min. […] The remaining activated groups were blocked with 1 M ethanolamine. Compounds were tested in a concentration response curve. The compounds were serially diluted 1:3 in DMSO to form a 10-point concentration response curve with 5 mM for the highest concentration. The FXIa CD was added to the plate at a final concentration of 50 nM and the mixture was incubated for 15 min at RT. The plate was then sealed and placed in the Biacore 3000 instrument. Samples were injected at 20 μL/min for 2 min. […] The value used to calculate percent inhibition of binding was the slope of the response measured 8 s after the start of the injection. […]

Another data set has as its target T3, Human PKK (Homo sapiens, UniProt P03952).
T3 construct: trypsin, plasma kallikrein (PKK), FIXa; purchased Calbiochem, Darmstadt, Germany
Put plainly: PKK (plasma kallikrein) chromogenic assay. Type of data set: biochemical. Particulars: for Ki: converted from IC50. The procedure: as §1, §2, §3
PKK. Human PKK was from Calbiochem, Darmstadt, Germany.

A short description of data set [1]: Precipitation in FXIa potency measurement. Type of data set: physicochemical.
In the next data set the test system is rat hepatocytes. Put plainly: Rat hepatocyte metabolic stability assay. Type of data set: in vitro ADME. The procedure:
Rat hepatocyte metabolic stability was determined in accordance with the method described by Jacobson et al.. Cryo preserved hepatocytes at a concentration of 10^6 viable cells/mL were used. After thawing, hepatocytes were incubated for 10 min to warm to 37°C and test compounds, dissolved in acetonitrile, were added to give a final concentration of 1 μM. At 0.5, 5, 15, 30, 45, 60, 80, 100 and 120 min, the incubation system was mixed and 20 μL aliquots were transferred at each time point to wells in a separate plate filled with 80 μL acetonitrile to stop the reaction. The quenching plate was then vortexed followed by centrifugation, and supernatants were analyzed by LC/MS/MS. Peak areas were determined from extracted ion chromatograms, and the in vitro intrinsic clearance (in vitro CLint, in μL/min/10^6 cells) of parent compound was calculated from the slope in the regression analysis of the natural logarithm of parent concentration vs. time curve.

Data set [2] can be described thus: Chromatographic determination of lipophilicity. The settings on record: reversed-phase UPLC, Waters BEH C18 stationary phase, pH 7.4; measured by liquid chromatography, pH7.4. Type of data set: physicochemical. The text has this:
The chromatographic data was obtained utilizing a Waters Aquity UPLC chromatographic system running a gradient from 5–95% acetonitrile at pH7.4. The stationary phase was a Waters BEH C18 2.1x50 mm. Standardized retention data were obtained by normalization against a set of compounds with precisely determined (octanol/water) logD-values. Lipophilicity values for samples were derived from a corresponding calibration curve.

In another data set the test system is Caco2 cells. Kind of data set: Caco2 permeability. Type of data set: in vitro ADME. Particulars: measured at pH 6.5. How it is done: A monolayer of Caco2 cells, cultured on semi-permeable polycarbonate surfaces, was used to study the permeability in the apical to basolateral direction. The process was atomized by a robotic Tecan EVO platform (Männerdorf, Switzerland) and 24-transwell plates from Costar (Cambridge, MA, USA). HBSS buffer pH 7.4 was dispensed to the basal side of the monolayer. […] Samples for quantitative analysis by LC/MS/MS were withdrawn before the addition of the test substrate and at 45 and 120 min post addition of the test substrate. During incubation the transwell plates were placed in a shaking incubator at 37°C between sampling. The peak areas were exported to Excel where Papp-values and recoveries were calculated. Twenty-two reference compounds with known human oral bioavailability were used to establish a correlation curve with Papp versus the fraction of the oral dose absorbed (fa).
A general note: Passage across Caco-2 layers is used to estimate intestinal permeability.

The nature of another data set: Caco2 efflux. Particulars: human, Caco-2; Caco2, Papp B to A / Papp A to B, pH 7.4 at side A. Type of data set: in vitro ADME. The source says:
Efflux was studied in the same Caco2 cells with the modification that HBSS buffer pH 7.4 was used on both sides of the monolayer. The permeability was studied in the apical to basolateral direction (Papp AB) as well as in the basolateral to apical direction and (Papp BA). Efflux ratios were derived from the following equation: Papp BA/Papp AB.

A further data set can be described thus: In vivo rat PK. The settings on record: female, Sprague Dawley, plasma. The procedure:
Two days prior to dosing, female Sprague Dawley rats were prepared by cannulation of the left carotid artery for blood sampling and by cannulation of the right jugular vein for intravenous administration. The catheters were filled with heparin (100 IU/mL), exteriorized at the nape of the neck and sealed. The surgery was performed under isoflurane (Forene®, Abbott) anesthesia. After surgery the rats were housed individually and had free access to food and water. About 16 h prior to dosing the animals were deprived of food, and fasted until 4 h after dosing. The rats had free access to drinking water during the experiment. On the experiment day, the test item formulation was administered orally by gavage or intravenously in the jugular vein. At pre-defined time points, blood samples of about 0.150 mL were withdrawn from the carotid artery up to 24h after dosing. A total of 10 samples were withdrawn. The blood samples were collected in heparinized plastic tubes and centrifuged, within 30 min, for five min at 10 000 g and +4°C. The plasma was transferred to a 96 well plate and stored at -20°C until analysis by LC/MS/MS. The studies were approved by the Göteborg Animal Research Ethical Board.

By IC50 is commonly meant the point on the concentration scale where inhibition reaches its midpoint. A high value points to a need for much substance. What is called Ki is the dissociation constant of the complex between target and ligand, obtained from inhibition or displacement. Usually Kd stands for the constant that tells how readily two partners part at equilibrium. As usually defined, the pKa is the pH at which an ionisable group is half protonated. Lower therefore signals a stronger acid or weaker base. What is called chromatographic logD is lipophilicity estimated from chromatographic retention. A low value points to a more hydrophilic compound. Broadly, the efflux ratio is a quotient of directional permeabilities that is used to spot active efflux. As a reminder, the clearance is the rate of elimination divided by the concentration. The term bioavailability denotes dose-corrected exposure relative to a reference, in per cent. Low values mean poor availability, high ones good availability.

Where two headings read alike, the source gives them in different places.

T1 sequence (P03951 388-625): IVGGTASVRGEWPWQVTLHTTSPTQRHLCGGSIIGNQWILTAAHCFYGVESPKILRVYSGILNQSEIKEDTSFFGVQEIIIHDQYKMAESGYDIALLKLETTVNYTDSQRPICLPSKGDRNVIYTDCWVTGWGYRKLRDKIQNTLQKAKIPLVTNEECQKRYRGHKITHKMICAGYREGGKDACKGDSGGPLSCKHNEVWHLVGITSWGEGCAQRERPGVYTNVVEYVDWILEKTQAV
T1 sequence (P03951 19-387): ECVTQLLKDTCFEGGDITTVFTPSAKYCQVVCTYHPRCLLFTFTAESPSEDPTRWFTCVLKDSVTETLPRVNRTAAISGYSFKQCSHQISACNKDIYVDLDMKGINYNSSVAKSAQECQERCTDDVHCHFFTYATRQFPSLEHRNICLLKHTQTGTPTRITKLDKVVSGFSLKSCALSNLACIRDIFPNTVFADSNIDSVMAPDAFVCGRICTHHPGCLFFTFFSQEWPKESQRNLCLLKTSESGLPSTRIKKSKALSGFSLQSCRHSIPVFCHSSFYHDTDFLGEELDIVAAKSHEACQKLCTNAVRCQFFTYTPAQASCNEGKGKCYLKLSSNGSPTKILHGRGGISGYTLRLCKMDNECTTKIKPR
T3 sequence (P03952 391-638 limits assumed): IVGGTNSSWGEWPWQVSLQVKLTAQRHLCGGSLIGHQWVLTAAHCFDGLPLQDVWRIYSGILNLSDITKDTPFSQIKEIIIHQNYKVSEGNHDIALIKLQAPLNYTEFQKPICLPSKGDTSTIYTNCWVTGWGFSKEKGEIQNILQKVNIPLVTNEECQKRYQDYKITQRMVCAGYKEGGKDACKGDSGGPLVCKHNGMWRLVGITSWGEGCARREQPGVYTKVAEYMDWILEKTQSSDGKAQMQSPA
T3 sequence (P03952 20-390 partner limits assumed): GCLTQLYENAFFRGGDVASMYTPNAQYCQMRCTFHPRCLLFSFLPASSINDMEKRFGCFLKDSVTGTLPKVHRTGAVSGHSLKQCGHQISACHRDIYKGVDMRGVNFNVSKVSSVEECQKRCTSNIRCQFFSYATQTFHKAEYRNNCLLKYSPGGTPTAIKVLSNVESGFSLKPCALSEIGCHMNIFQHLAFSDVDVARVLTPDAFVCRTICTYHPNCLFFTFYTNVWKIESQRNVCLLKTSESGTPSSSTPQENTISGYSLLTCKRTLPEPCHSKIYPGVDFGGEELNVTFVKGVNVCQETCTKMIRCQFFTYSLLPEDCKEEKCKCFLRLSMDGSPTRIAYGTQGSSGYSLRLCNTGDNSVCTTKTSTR
T2 sequence (P03951 388-625 S452A/K455A/T493A/C500S): as the sequence (P03951 388-625) above, with S65A, K68A, T106A, C113S counted along it

At Human FXIa, `N=C(N)c1ccc2cc(C(=O)Nc3cccc(OCCOCCN)c3)cc(Nc3ncccn3)c2c1` [Compound 4, N-(3-(2-(2-aminoethoxy)ethoxy)phenyl)-6-carbamimidoyl-4-(pyrimidin-2-ylamino)-2-naphthamide, reference compound] yielded an IC50 of 0.24 µM and a Ki of 0.12 µM. In addition, the affinity on FXIa CD, expressed as Kd, was 0.39 µM.
On Human PKK, `Nc1ccc2c(CNC(=O)[C@H](Cc3ccccc3)NC(=O)c3ccc4[nH]c(=O)cc(O)c4c3)cccc2n1` [Compound 8, (S)-N-(1-{(2-Aminoquinolin-5-yl)methylamino}-1-oxo-3-phenylpropan-2-yl)-4-hydroxy-2-oxo-1,2-dihydroquinoline-6-carboxamide] displayed an IC50 of 7.2 µM and a Ki of 1.5 µM. Moreover, the “selectivity vs. PKK” value at Human PKK (FXIa over PKK, for 13 based on Ki values) is “about 25 fold”. On Human FXIa, this molecule displayed an IC50 of 0.12 µM and a Ki of 0.06 µM. Besides, the pKa in “Experimental pKa” is 7.1.
On to `Cc1cc(=O)[nH]c2ccc(Cl)cc12` [Compound 12], for which the “Precipitates at higher concentration than” value in data set [1] was greater than 111 µM. Moreover, the inhibition at 111 µM on Human FXIa (read-out: FXIa % inh. at 111 μM) turned out to be 43%.
With `CNC(=O)[C@H](Cc1ccccc1)NC(=O)c1ccc2[nH]c(=O)cc(O)c2c1` [Compound 15, (S)-4-Hydroxy-N-(1-(methylamino)-1-oxo-3-phenylpropan-2-yl)-2-oxo-1,2-dihydroquinoline-6-carboxamide], the “ligand efficiency (LE)” value at Human FXIa (FXIa) was 0.15. Moreover, the “-ΔG fragment (printed with reversed sign in the ΔG link equation)” value at Human FXIa (FXIa, subtracted term, so ΔG itself is negative) worked out at 3.9 kcal/mol. Also, the Kd on FXIa CD (read-out: FXIa KD) was 1400 µM.
On to `CN(Cc1cc(=O)[nH]c2ccc(Cl)cc12)C(=O)[C@H](Cc1ccccc1)NC(=O)c1ccc2[nH]c(=O)cc(O)c2c1` [Compound 25, (S)-N-(1-[{(6-Chloro-2-oxo-1,2-dihydroquinolin-4-yl)methyl}(methyl)amino]-1-oxo-3-phenylpropan-2-yl)-4-hydroxy-2-oxo-1,2-dihydroquinoline-6-carboxamide], for which, in the data set with rat hepatocytes, the “Rat CLint” value is 10 μL/min/ 1·10^6 cells. Further, the chromatographic logD in data set [2] came to 1.3. Moreover, the IC50 against Human FXIa was less than 0.005 µM. In addition, the inhibition at 0.005 µM on Human FXIa (read-out: FXIa % inh. at 5 nM) worked out at 85%. Moreover, in the data set with Caco2 cells, the “Caco2 A to B permeability” value is 0.28 1·10^-6 cm/s. Moreover, the efflux ratio in “Caco2 efflux” stood at 5.2.
In the case of `CN(Cc1cc(=O)[nH]c2ccc(Cl)cc12)C(=O)[C@H](Cc1ccccc1)N(C)C(=O)c1ccc2[nH]c(=O)cc(O)c2c1` [Compound 26, (S)-N-(1-[{(6-Chloro-2-oxo-1,2-dihydroquinolin-4-yl)methyl}(methyl)amino]-1-oxo-3-phenylpropan-2-yl)-4-hydroxy-N-methyl-2-oxo-1,2-dihydroquinoline-6-carboxamide], in the data set with rat hepatocytes, the “Rat CLint” value stood at 23 μL/min/ 1·10^6 cells. In addition, the chromatographic logD in data set [2] is 1.4. For the same molecule, at Human FXIa, the IC50 was found to be 1.7 µM and the affinity, expressed as Ki, was 0.85 µM. Besides, the “Caco2 A to B permeability” value with Caco2 cells is on record as 0.16 1·10^-6 cm/s. The efflux ratio in the data set “Caco2 efflux” is greater than 3.8.
For `Cc1c(-c2ccccc2)n[nH]c1C(=O)N(C)Cc1cc(=O)[nH]c2ccc(Cl)cc12` [Compound 28, N-{(6-Chloro-2-oxo-1,2-dihydroquinolin-4-yl)methyl}-N,4-dimethyl-3-phenyl-1H-pyrazole-5-carboxamide], the “Rat CLint” value in the data set with rat hepatocytes worked out at 21 μL/min/ 1·10^6 cells. For the same molecule, at Human PKK, it took 8.4 µM to reach half-maximal inhibition (IC50) and the affinity corresponds to a Ki of 1.7 µM. The chromatographic logD in data set [2] worked out at 2.7. For the same molecule, the clearance in “In vivo rat PK” (intravenous, rat in vivo, read-out: Rat CL (in vivo clearance)) turned out to be 18 mL/min/kg. Moreover, in the data set “In vivo rat PK” (rat, oral), the bioavailability was determined as 27%. At Human FXIa, this molecule displayed an IC50 of 0.82 µM and a Ki of 0.41 µM. The “Caco2 A to B permeability” value with Caco2 cells is listed as 19 1·10^-6 cm/s. Further, in “Caco2 efflux”, the efflux ratio was 1.6.
